In US12459951B2, “Compounds that interact with RAS superfamily proteins for treatment of cancers, inflammatory diseases, rasopathies, and fibrotic disease” (SHY Therapeutics, LLC, priority 2022, dated 2025):

How the values were obtained:
Akt phosphorylation = test: Akt Phosphorylation Assay (western blot), Panc-1; assay type: cell-based, human; settings: at 10 μM, * = activation
Procedure, shortened: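 Phospho-Akt (Ser473) was measured by western blot in lysates of KRas G12D Panc-1 cells exposed to test compound for 6 h at 37 °C, either at 10 μM final with 0.3% DMSO or as serial dilutions for IC50. One format used overnight 0.5% FBS starvation followed by a 15 min pulse of 1.5 ng/ml EGF. The other used cells in 10% FBS with no stimulation.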

IL6 = test: IL-6 Quantification Assay (ELISA), LPS-stimulated RAW 264.7; assay type: cell-based; set-up: inhibition: dose or concentration left out as unconfirmed; settings: Mus musculus, RAW264.7; read-out: IL-6: % inh.
TNF-alpha = TNF-alpha Quantification Assay (ELISA), LPS-stimulated RAW 264.7; assay type: cell-based; settings: Mus musculus, RAW264.7; at 10 μM; read-out: TNFα: % inh.
KRas G12D mutant = test: Ras GTP Binding Domain Inhibition Assay (Ras Superfamily Assay); settings: at 20 μM; for KRas G12D mutant + SOS: % inh.: with SOS; for KRas G12D mutant: % inh.: without SOS
Procedure, shortened: (§1)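 His-tagged GTPases immobilised on nickel-coated plates, pre-incubated with compound (20 μM single point, or serial dilution for IC50) 3 h at room temperature, with or without 10-30 μg/mL Sos (residues 556-1049) in the final hour. Bound Cy3- or Cy5-GTP (100 nM, 45 min) measured by fluorescence after washing.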

KRas wild type = test: as above; settings: at 20 μM; for KRas wild type + SOS: % inh.: with SOS; for KRas wild type: % inh.: without SOS
Procedure, shortened: as §1

Rac-1 = biological target: T1, Rac-1 (Homo sapiens, UniProt P63000); test: as above; settings: read-out: Rac-1: % inh.
T1 construct: made in house
Procedure, shortened: as §1

SMILES	% inh of Akt phosphorylation in Panc-1 (Akt phosphorylation)	inhibition (IL6)	inhibition at 10 µM (TNF-alpha)	KRas G12D mutant + SOS: % inh. (KRas G12D mutant)	KRas G12D mutant: % inh. (KRas G12D mutant)	KRas wild type + SOS: % inh. (KRas wild type)	KRas wild type: % inh. (KRas wild type)	inhibition at 20 µM (Rac-1)
Cc1c(-c2ccn(C)n2)cn2nc(-c3nccn3C)nc(Nc3cc(-c4ccccc4)[nH]n3)c12 [Compound 263, 5-Methyl-2-(1-methyl-1H-imidazol-2-yl)-6-(1-methyl-1H-pyrazol-3-yl)-N-(5-phenyl-1H-pyrazol-3-yl)pyrrolo[2,1-f][1,2,4]triazin-4-amine]	D* (85-100% activation)	75 to 100%	50 to 74%	D (D = 76-100% inhibition)	D (D = 76-100% inhibition)	D (D = 76-100% inhibition)	C (C = 50-75% inhibition)	76 to 100%
COc1cccc(-c2cn3nc(-c4nccn4C)nc(N[C@@H]4CC[C@H]4OC)c3c2-c2ccccc2)c1C (racemic) [Compound 272, rac 6-(3-Methoxy-2-methylphenyl)-N-((1R,2R)-2-methoxycyclobutyl)-2-(1-methyl-1H-imidazol-2-yl)-5-phenylpyrrolo[2,1-f][1,2,4]triazin-4-amine]	D (85-100% inhibition)	75 to 100%	75 to 100%	A (A = 1-25% inhibition)	C (C = 50-75% inhibition)	0 (0 = 0% inhibition)	0 (0 = 0% inhibition)	1 to 25%
COc1ccc(F)c(-c2cn3nc(-c4nccn4C)nc(N[C@H]4C[C@H](OC)C4)c3c2-c2ccccc2)c1F [Compound 273, 6-(2,6-Difluoro-3-methoxyphenyl)-N-((1r,3r)-3-methoxycyclobutyl)-2-(1-methyl-1H-imidazol-2-yl)-5-phenylpyrrolo[2,1-f][1,2,4]triazin-4-amine]	D (85-100% inhibition)	75 to 100%	75 to 100%	A (A = 1-25% inhibition)	B (B = 26-49% inhibition)	A (A = 1-25% inhibition)	0 (0 = 0% inhibition)	1 to 25%
COc1cc(Nc2nc(-c3nccn3C)nn3cc(-c4ccn(C)n4)c(C)c23)ncc1-n1cnc(C)c1 [Compound 244, N-(4-Methoxy-5-(4-methyl-1H-imidazol-1-yl)pyridin-2-yl)-5-methyl-2-(1-methyl-1H-imidazol-2-yl)-6-(1-methyl-1H-pyrazol-3-yl)pyrrolo[2,1-f][1,2,4]triazin-4-amine]	D* (85-100% activation)	0%	0%	D (D = 76-100% inhibition)	D (D = 76-100% inhibition)	D (D = 76-100% inhibition)	C (C = 50-75% inhibition)	76 to 100%
Cc1c(-c2ccn(C)n2)cn2nc(-c3nccn3C)nc(Nc3cc(-c4cccnc4)ccn3)c12 [Compound 250, N-([3,4′-Bipyridin]-2′-yl)-5-methyl-2-(1-methyl-1H-imidazol-2-yl)-6-(1-methyl-1H-pyrazol-3-yl)pyrrolo[2,1-f][1,2,4]triazin-4-amine]	D* (85-100% activation)	75 to 100%	50 to 74%	D (D = 76-100% inhibition)	D (D = 76-100% inhibition)	D (D = 76-100% inhibition)	D (D = 76-100% inhibition)	76 to 100%
Cc1c(-c2ccn(C)n2)cn2nc(-c3nccn3C)nc(Nc3cc(C(F)(F)F)[nH]n3)c12 [Compound 259, 5-Methyl-2-(1-methyl-1H-imidazol-2-yl)-6-(1-methyl-1H-pyrazol-3-yl)-N-(5-(trifluoromethyl)-1H-pyrazol-3-yl)pyrrolo[2,1-f][1,2,4]triazin-4-amine]	D* (85-100% activation)	50 to 74%	0%	D (D = 76-100% inhibition)	C (C = 50-75% inhibition)	D (D = 76-100% inhibition)	C (C = 50-75% inhibition)	76 to 100%
COc1cccc(-c2cn3nc(-c4nccn4C)nc(N[C@H]4C[C@H](OC)C4)c3c2-c2ccccn2)c1C [Compound 274, 6-(3-Methoxy-2-methylphenyl)-N-((1r,3r)-3-methoxycyclobutyl)-2-(1-methyl-1H-imidazol-2-yl)-5-(pyridin-2-yl)pyrrolo[2,1-f][1,2,4]triazin-4-amine]	D (85-100% inhibition)	75 to 100%	75 to 100%	A (A = 1-25% inhibition)	B (B = 26-49% inhibition)	0 (0 = 0% inhibition)	0 (0 = 0% inhibition)	0%
